Reference: US20140128349A1 (Indiana University School of Medicine, priority 2012, published 2014)
“Also recorded” adds a separate entry of the source.

Tests used:
[1] = test system: 1205Lu melanoma cells; experiment: 1205Lu melanoma metastasis in nude mice; type: in vivo
From the text: (§1) TGFbeta derived from bone fuels melanoma bone metastasis by inducing tumor secretion of pro-metastatic factors that act on bone cells to change the skeletal microenvironment. […] Hfg is active orally and by intraperitoneal injection, and it has completed Phase I clinical trials in cancer patients. It suppresses the phosphorylation and activation of Smad2 and Smad3 by inducting of Smad7. Overexpression of inhibitory Smad7 has been associated with a reduction on invasive capacity in vitro and anchorage-independent growth, and delays subcutaneous tumor growth in nude mice. The present inventors have shown that Smad7 overexpression decreased melanoma bone metastasis, thus is useful for treating and/or preventing muscle weakness and atrophy as well as other muscle related side effects in cancer patients.

[2] = test system: human melanoma cells; experiment: Hfg treatment of human melanoma cells; type: cell-based
From the text: as §1

[3] = test system: RyR; settings: cited from earlier work
[4] = target: T1, RyR1 (Mus musculus, UniProt E9PZQ0); set-up: from tissue; host or cells: skeletal muscle of mdx mice; settings: mdx model of DMD; cited from earlier work
[5] = test system: RyR; experiment: S107 blood brain barrier crossing and calstabin binding to RyR in brain in vivo
From the text: Data from heart and soleus muscle are also illustrated.
Cardiac muscle RyR2 is PKA hyperphosphorylated, oxidized, nitrosylated and depleted of calstabin2 in animal models of heart failure (HF) and in the hearts of patients with HF. […] Compounds of formula I-o, which share a common structure with S107, are also expected to have similar activities. This advantage is expected to enhance the ability of the TGFbeta inhibitor to be available to act upon most body tissues for improved effectiveness.

[6] = test system: RyR2; settings: animals; cited from earlier work
[7] = target: T1, RyR1; set-up: in a mouse model of aging, oxidation of skeletal muscle RyR1 causes depletion of the stabilizing subunit calstabin1 (FKBP12); from tissue; host or cells: skeletal muscle of aged (2 yr old) mice; settings: mouse model of aging; cited from earlier work
[8] = test system: PC-3 bone metastases; experiment: PC-3 prostate cancer bone metastases in mice; type: in vivo; settings: osteolytic model; X-ray, osteolytic lesion area, survival
From the text: For all mouse experiments, N=15 for each group of mice for tumors inoculated in the left cardiac ventricle (PC-3) or intratibially (LuCAP23.1) based on power analysis detailed below. Male nude mice are housed in laminar flow isolated hoods with water supplemented with vitamin K and autoclaved mouse chow provided ad libitum. Cells are introduced into mice at 4 wks of age. Animals are anesthetized with ketamine/xylazine and positioned ventral side up.
Multiple modalities of bone imaging including X-ray and μCT are used to longitudinally monitor the bone lesions and confirmed by histology and quantitative histomorphometry as previously described (Dunn et al., 2009; Guise et al., 1996b; Yin et al., 1999). Muscle mass are followed serially in vivo using the Piximus II system (Wiren et al., 2011) and microCT (Manske et al., 2011).

[9] = co-administration of S107 and SD208 in tumor bearing mice; type: in vivo; settings: S107 in drinking water about 50 mg/kg/day
Description: For example, administering the TGFbeta kinase inhibitor SD208 prevents oxidation of RyR1 and SERCA in skeletal muscles from tumor bearing mice, thus increasing muscle specific force production and grip strength in these mice. The co-administration of S107 further inhibits SR Ca^2+ leak by reducing the stress-induced depletion of calstabin from the RyR channel complex. […] Thus, when these are co-administered, the benzothiazepine derivative is administered at a dosage of between about 20 mg/kg/day and about 100 mg/kg/day and the inhibitor is administered in an amount of about 10 mg/kg/day and about 50 mg/kg/day. The ratio of the amount of benzothiazepine derivative to inhibitor in the co-administered formulation should be between 1:1 to 5:1 and preferably 1.3:1 to 2.5:1. Also, the benzothiazepine and inhibitor can be administered at the same time in a single formulation or sequentially if each is present in a separate formulation.

[10] = test system: RyR1; experiment: RyR1 oxidation/nitrosylation/calstabin1 immunoblot of EDL from PC-3 tumor bearing mice; type: in vivo; settings: mice with prostate cancer metastatic to bone
Description: (§2) In embodiments B and C are shown decreased skeletal muscle cross-sectional area in tumor-bearing mice determined by Micro-CT as described herein. In embodiments D and E are shown decreased body weight (D) and decreased Grip strength (E) in PC-3 tumor bearing mice. […] In embodiment J is shown that RyR1 is oxidized and there is decreased calstabin1 in the RyR1 complex from, skeletal muscle (EDL) from mice with metastatic prostate cancer. RyR1 was immunoprecipitated from 250 μg of EDL homogenate using an anti-RyR antibody (4 μg 5029 Ab), and the immunoprecipitates were separated on SDS-PAGE gels (6% for RyR. 15% for Calstabin). All immunoblots were developed and quantified with the Odyssey system (LI-COR, Inc., Lincoln, Nebr.) using IR labeled anti-mouse and anti-Rabbit IgG (1:10,000 dilution) secondary antibodies. […] Quantification of immunoblots showing the relative nitrotyrosine/SERCA for each group of EDLs tested. *p<0.01 compared to non-cancer controls as analyzed by ANOVA. […]
Quantification of RyR1 skeletal channel nitrosylation, oxidation and phosphorylation by protein kinase A (PKA) are performed as described (Bellinger et al., 2009; Bellinger et al., 2008b).
Quantification of depletion of the channel stabilizing subunit calstabin 1 (FKBP12) from skeletal RyR1 by immunoprecipitation techniques are performed as described (Marx et al., 2000). […]

[11] = test system: LuCaP 23.1 human prostate cancer osteoblastic xenograft; experiment: LuCaP 23.1 osteoblastic prostate cancer xenograft in tibia of nude mice; type: in vivo
From the text: Four-week old, male nude mice were inoculated into the tibia with LuCaP 23.1 human prostate cancer osteoblastic xenograft (n=14-15/group).

[12] = EDL muscle specific force in mice with PC-3 prostate cancer bone metastases; type: in vivo; settings: hypogonadal mice with PC-3 prostate cancer metastatic to bone
Description: as §2, with “antibodies. Immunoblots developed using anti-RyR (clone 34C, 1:5,000), anti-Cys-NO (1:1000, Sigma, St. Louis, Mo.), anti-DNP (to determine RyR1 oxidation. 1:250), and anticalstabin (1:2500).” for “antibodies.”
S107 is administered in the drinking water at a dose of 50 mg/kg/d, water consumption is monitored and plasma drug levels determined. […]

[13] = patients with prostate cancer bone metastases, regardless of radiographic phenotype; cited from earlier work

T1 sequence (E9PZQ0 whole entry): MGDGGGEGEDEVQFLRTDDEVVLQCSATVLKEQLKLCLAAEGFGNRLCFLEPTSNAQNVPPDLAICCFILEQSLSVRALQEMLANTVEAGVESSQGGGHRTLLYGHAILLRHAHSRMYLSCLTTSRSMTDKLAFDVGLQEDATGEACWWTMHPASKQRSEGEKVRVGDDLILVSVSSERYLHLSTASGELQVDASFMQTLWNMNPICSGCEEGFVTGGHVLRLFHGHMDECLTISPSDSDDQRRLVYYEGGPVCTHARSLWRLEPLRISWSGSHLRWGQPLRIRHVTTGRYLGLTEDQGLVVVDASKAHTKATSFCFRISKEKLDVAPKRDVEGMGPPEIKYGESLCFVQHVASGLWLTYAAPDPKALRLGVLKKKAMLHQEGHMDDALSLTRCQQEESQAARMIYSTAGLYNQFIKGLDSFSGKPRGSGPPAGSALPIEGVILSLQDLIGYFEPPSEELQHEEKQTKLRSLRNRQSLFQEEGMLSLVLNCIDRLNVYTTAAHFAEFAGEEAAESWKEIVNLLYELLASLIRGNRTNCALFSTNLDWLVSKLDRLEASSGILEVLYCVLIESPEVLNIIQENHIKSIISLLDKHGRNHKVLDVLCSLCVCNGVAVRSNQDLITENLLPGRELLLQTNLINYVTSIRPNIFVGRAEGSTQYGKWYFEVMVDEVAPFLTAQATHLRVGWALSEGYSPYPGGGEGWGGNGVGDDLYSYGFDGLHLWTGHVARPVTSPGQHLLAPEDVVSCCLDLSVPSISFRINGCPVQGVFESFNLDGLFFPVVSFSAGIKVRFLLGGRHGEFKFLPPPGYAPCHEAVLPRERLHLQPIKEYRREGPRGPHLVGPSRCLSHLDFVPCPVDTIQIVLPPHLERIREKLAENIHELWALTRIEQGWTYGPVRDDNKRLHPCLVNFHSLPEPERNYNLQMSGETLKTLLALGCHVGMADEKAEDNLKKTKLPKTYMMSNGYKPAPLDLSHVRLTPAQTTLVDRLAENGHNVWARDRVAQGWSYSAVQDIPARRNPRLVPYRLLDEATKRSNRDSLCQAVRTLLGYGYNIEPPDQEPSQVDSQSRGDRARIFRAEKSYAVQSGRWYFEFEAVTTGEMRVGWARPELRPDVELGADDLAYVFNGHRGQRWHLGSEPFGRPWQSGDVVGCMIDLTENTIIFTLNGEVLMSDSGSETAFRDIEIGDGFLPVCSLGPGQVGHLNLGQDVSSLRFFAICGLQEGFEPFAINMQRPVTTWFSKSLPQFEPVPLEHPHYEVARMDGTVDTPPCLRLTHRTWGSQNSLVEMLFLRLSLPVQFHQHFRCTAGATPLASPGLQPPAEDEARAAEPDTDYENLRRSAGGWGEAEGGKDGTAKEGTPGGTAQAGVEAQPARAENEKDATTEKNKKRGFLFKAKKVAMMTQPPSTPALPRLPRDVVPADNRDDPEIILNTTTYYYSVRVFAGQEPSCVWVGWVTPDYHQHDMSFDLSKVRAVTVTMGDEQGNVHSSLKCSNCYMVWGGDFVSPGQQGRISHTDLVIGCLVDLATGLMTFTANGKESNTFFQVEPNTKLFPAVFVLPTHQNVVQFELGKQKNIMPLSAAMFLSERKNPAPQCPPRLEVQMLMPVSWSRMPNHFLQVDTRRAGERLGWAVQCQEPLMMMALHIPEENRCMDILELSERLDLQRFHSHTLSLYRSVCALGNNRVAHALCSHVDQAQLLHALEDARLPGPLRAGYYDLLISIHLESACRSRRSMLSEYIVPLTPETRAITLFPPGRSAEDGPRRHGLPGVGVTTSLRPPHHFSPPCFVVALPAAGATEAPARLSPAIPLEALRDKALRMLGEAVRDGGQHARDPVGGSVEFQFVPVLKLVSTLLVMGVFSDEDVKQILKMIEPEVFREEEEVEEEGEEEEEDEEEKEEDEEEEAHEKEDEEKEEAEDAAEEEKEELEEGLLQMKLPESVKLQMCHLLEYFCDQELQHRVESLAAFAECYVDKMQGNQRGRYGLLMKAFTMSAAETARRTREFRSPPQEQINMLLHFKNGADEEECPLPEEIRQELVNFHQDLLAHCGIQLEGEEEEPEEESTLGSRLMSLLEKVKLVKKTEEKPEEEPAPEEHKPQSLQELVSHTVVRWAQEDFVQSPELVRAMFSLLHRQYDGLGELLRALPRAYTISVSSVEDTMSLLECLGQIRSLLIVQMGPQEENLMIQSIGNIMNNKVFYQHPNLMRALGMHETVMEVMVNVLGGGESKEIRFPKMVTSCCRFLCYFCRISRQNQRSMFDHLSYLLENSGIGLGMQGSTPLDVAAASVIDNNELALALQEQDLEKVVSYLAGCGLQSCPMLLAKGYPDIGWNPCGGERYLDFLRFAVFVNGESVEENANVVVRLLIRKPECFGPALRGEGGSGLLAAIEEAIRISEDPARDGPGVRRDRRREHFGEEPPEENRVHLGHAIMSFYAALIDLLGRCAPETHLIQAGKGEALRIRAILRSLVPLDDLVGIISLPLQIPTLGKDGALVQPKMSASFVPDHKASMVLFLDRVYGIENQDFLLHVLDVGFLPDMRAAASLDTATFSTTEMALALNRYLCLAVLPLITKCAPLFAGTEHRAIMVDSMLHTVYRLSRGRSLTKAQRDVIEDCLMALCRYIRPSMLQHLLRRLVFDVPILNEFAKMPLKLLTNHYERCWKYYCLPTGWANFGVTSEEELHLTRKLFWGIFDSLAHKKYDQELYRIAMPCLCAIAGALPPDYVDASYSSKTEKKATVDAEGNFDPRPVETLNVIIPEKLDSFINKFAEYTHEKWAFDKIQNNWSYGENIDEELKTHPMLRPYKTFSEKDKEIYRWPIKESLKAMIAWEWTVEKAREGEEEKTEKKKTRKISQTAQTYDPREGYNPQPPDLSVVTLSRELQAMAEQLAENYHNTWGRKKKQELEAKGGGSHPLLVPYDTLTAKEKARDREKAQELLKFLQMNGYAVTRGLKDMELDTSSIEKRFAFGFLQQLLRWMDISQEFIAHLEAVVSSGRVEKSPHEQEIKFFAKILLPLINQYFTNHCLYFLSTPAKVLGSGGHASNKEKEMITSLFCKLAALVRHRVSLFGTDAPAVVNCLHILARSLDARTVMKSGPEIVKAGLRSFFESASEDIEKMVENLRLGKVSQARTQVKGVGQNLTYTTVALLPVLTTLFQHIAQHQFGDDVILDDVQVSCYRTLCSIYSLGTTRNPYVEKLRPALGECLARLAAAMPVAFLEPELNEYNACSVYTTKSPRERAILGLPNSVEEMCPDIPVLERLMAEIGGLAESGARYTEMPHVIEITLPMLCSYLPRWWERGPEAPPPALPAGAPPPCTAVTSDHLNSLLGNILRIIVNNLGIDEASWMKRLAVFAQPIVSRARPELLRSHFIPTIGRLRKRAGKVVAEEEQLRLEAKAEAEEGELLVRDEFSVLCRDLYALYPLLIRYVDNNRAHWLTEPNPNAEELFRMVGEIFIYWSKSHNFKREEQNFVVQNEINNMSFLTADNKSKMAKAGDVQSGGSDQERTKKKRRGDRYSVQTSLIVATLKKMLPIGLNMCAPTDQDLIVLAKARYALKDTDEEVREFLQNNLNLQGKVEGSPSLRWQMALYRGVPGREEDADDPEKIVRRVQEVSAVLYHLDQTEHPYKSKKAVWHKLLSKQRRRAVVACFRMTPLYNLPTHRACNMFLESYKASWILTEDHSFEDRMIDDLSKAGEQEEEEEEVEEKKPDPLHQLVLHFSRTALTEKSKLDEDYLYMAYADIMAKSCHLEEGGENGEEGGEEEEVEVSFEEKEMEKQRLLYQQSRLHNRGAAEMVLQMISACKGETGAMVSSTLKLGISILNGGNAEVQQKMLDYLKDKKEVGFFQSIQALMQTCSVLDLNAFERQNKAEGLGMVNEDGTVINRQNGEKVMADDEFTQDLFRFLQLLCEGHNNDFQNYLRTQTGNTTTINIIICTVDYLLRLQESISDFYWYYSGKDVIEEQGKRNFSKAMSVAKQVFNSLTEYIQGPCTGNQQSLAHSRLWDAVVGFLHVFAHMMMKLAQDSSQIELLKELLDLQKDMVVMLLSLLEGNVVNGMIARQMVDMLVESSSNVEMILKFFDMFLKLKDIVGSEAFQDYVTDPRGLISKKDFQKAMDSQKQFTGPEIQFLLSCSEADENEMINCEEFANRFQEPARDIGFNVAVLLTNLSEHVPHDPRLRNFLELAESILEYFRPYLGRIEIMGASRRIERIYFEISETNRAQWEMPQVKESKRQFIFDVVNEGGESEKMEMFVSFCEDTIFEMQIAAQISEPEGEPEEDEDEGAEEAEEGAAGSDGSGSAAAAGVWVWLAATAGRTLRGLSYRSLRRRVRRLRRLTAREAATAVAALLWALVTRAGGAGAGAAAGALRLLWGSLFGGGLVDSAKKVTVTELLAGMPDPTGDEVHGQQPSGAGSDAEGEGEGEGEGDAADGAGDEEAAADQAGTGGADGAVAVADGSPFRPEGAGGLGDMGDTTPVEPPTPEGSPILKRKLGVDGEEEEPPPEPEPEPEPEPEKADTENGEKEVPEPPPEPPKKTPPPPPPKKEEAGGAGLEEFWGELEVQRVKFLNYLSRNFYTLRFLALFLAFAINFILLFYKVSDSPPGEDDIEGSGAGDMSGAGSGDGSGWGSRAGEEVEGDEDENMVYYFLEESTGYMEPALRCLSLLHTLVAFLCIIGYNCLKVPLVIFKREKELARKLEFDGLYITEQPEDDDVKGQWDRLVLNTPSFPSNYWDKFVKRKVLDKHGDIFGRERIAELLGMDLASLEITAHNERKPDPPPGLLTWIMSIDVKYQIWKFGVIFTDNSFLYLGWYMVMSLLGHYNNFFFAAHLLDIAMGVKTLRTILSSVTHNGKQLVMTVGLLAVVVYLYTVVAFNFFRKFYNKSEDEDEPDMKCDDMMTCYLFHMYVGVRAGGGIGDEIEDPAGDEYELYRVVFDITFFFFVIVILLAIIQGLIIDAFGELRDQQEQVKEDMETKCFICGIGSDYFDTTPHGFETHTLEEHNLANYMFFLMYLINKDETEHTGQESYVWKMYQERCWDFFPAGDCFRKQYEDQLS
T1 sequence (P26883 2-108 partner limits assumed): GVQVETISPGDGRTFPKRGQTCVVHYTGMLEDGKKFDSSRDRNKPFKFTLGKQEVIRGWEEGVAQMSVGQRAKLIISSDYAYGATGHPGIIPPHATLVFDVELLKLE

O=C(CC1NCCCC1O)Cn1cnc2cc(Br)c(Cl)cc2c1=O (stereo not shown) [Halofuginone]
osteolysis in mice with established bone metastasis ([1]; assessed by radiography, vs placebo): significantly less osteolysis than mice receiving placebo
bone metastasis, preventive protocol ([1]; nude mice inoculated with 1205Lu melanoma cells): inhibited bone metastasis
cell proliferation [2]: inhibited cell proliferation
expression of TGFbeta target genes (PTHrP, CTGF, CXCR4, IL11) [2]: reducing expression of TGFbeta target genes

COc1ccc2c(c1)CN(C)CCS2 [S107]
specificity [3]: RyR specific
grip strength [4]: improves grip strength
muscle damage [4]: reduced muscle damage
crossing of the blood brain barrier [5]: crosses the blood brain barrier
binding of calstabin to RyR in the brain ([5]; mid-section and cerebellum): enhances binding of calstabin to a RyR in the brain
HF progression [6]: inhibits HF progression
SR Ca2+ leak (Ca2+ sparks, channel open probability) [7]: reduced SR Ca^2+ leak
exercise capacity [7]: improved
muscle force production [7]: improved muscle force production
oxidation induced depletion of calstabin1 from RyR1 [7]: prevented oxidation induced depletion of calstabin1 from RyR1
tetanic [Ca2+] [7]: increased tetanic [Ca^2+]

Fc1ccc(Cl)cc1-c1nc(Nc2ccncc2)c2nccnc2n1 [SD-208]
prevention of PC-3 bone metastases [8]: highly effective to prevent bone metastases due to PC-3; also recorded: prevents PC-3 bone metastases
effect of oral SD208 about 30 mg/kg/day co-administered with S107 [9]: same effects as administering SD208 at a dosage of about 60 mg/kg/day
skeletal muscle RyR1 oxidation, nitrosylation and depletion of calstabin 1 [10]: prevented oxidation/nitrosylation/calstabin1 depletion from RyR1; also recorded: prevented oxidation of RyR1
bone formation and tumor growth in LuCaP 23.1 ([11]; 50 or 150 mg/kg/day po, from 12 weeks post inoculation): does not increase bone formation or tumor growth
efficacy against LuCAP23.1 bone metastases ([11]; osteoblastic model): not effective against LuCAP23.1 bone metastases
muscle (EDL) specific force production [12]: improved muscle specific force production

denosumab: inhibitor of bone resorption
skeletal morbidity [13]: reduce skeletal morbidity
